Assay results published in patent US10785979B2, “Substituted ketoxime benzoylamides” (Bayer CropScience Aktiengesellschaft, priority 2015, dated 2020).

How the values were obtained:
different harmful plants [1] = assay: Pre-emergence comparative tests versus known compounds from WO 2013/064459 A1 (D1); assay type: in vivo; details: visual scoring after 3 weeks; for Herbicidal efficacy against AVEFA: Avena fatua; for Herbicidal efficacy against CYPES: Cyperus esculentus; for Herbicidal efficacy against VIOTR: Viola tricolor; for Herbicidal efficacy against STEME: Stellaria media; for Herbicidal efficacy against ECHCG: Echinochloa crus galli; for Herbicidal efficacy against POLCO: Polygonum convolvulus
Source text: Seeds of monocotyledonous and dicotyledonous weed plants and crop plants are laid out in wood-fiber pots in sandy loam and covered with soil. The compounds of the invention, formulated in the form of wettable powders (WP) or as emulsion concentrates (EC), are then applied to the surface of the covering soil in the form of an aqueous suspension or emulsion at a water application rate equating to 600 to 800 I/ha, with addition of 0.2% wetting agent. After the treatment, the pots are placed in a greenhouse and kept under good growth conditions for the trial plants. The damage to the test plants is scored visually after a test period of 3 weeks by comparison with untreated controls (herbicidal activity in percent (%): 100% activity=the plants have died, 0% activity=like control plants). In this case, for example, compound Nos. 1-15, 1-71, 1-74, 2-15, 2-19, 2-67, 2-71, 2-74, 2-136, 3-15, 3-19, 4-74, 5-15, 5-67, 5-71, 5-74, 6-15, 6-19, 6-67, 6-71, 6-74, 7-15, 7-19, 7-71, 7-74, 8-1, 8-25, 9-5, 9-25, 10-5 and 12-25, at an application rate of 320 g/ha, each show at least 80% efficacy against Abutilon theophrasti and Veronica persica.
(§1) 3. Comparative Experiments
(§2) In addition, comparative tests were conducted under the conditions specified above on different harmful plants between inventive compounds and the most structurally similar known compounds from WO 2013/064459 A1 (D1). The results listed in the tables which follow show the superiority of these compounds of the invention.
(§3) The abbreviations used here mean:
Pre-Emergence Comparative Tests

different harmful plants [2] = assay: Post-emergence comparative tests versus known compounds from WO 2013/064459 A1 (D1); assay type: in vivo; details: visual assessment after about 3 weeks; for Herbicidal efficacy against MATIN: Matricaria inodora; for Herbicidal efficacy against VIOTR: Viola tricolor; for Herbicidal efficacy against ALOMY: Alopecurus myosuroides
Description: Seeds of monocotyledonous and dicotyledonous weed and crop plants are laid out in sandy loam soil in wood-fiber pots, covered with soil and cultivated in a greenhouse under good growth conditions. 2 to 3 weeks after sowing, the test plants are treated at the one-leaf stage. The compounds of the invention, formulated in the form of wettable powders (WP) or as emulsion concentrates (EC), are then sprayed onto the green parts of the plants in the form of an aqueous suspension or emulsion at a water application rate equating to 600 to 800 I/ha, with addition of 0.2% wetting agent. After the test plants have been left to stand in the greenhouse under optimal growth conditions for about 3 weeks, the action of the preparations is assessed visually in comparison to untreated controls (herbicidal action in percent (%): 100% activity=the plants have died, 0% activity=like control plants). In this case, for example, compound Nos. 1-15, 1-71, 1-74, 2-15, 2-19, 2-67, 2-71, 2-74, 2-136, 3-15, 3-19, 4-19, 4-136, 5-15, 7-15, 7-19, 7-74, 8-1, 8-25, 8-26, 9-5, 9-25, 10-5 and 10-5, at an application rate of 80 g/ha, each show at least 80% efficacy against Abutilon theophrasti and Veronica persica.
as §1, §2, §3
Post-Emergence Comparative Tests

Question: What does the source list for `CCON=C(C)c1c(Cl)ccc(C(=O)Nc2nnnn2C)c1Cl` (single isomer, unassigned) [1-5]?
Answer: Herbicidal efficacy against AVEFA (different harmful plants [1]; 320 g a.i./ha): 90%; Herbicidal efficacy against CYPES (different harmful plants [1]; 320 g a.i./ha): 90%; Herbicidal efficacy against VIOTR (different harmful plants [1]; 320 g a.i./ha): 100%; Herbicidal efficacy against MATIN (different harmful plants [2]; 20 g a.i./ha): 90%; Herbicidal efficacy against VIOTR (different harmful plants [2]; 20 g a.i./ha): 90%

Question: With `CCCn1nnnc1NC(=O)c1ccc(Cl)c(C(C)=NOCC)c1Cl` (single isomer, unassigned) [3-5] as the molecule, how does the “Herbicidal efficacy against AVEFA” value (different harmful plants [1]; 320 g a.i./ha) read?
Answer: 70%

Question: And the “Herbicidal efficacy against STEME” value (different harmful plants [1]; 320 g a.i./ha)?
Answer: 100%

Question: And the “Herbicidal efficacy against VIOTR” value (different harmful plants [1]; 320 g a.i./ha)?
Answer: 100%

Question: What about the “Herbicidal efficacy against MATIN” value (different harmful plants [2]; 80 g a.i./ha) of the same molecule?
Answer: 90%

Question: And the “Herbicidal efficacy against VIOTR” value (different harmful plants [2]; 80 g a.i./ha)?
Answer: 100%

Question: What does the source list for `CCn1nnnc1NC(=O)c1ccc(Cl)c(C(C)=NOC)c1Cl` (single isomer, unassigned) [2-1]?
Answer: Herbicidal efficacy against AVEFA (different harmful plants [1]; 320 g a.i./ha): 100%; Herbicidal efficacy against CYPES (different harmful plants [1]; 320 g a.i./ha): 100%; Herbicidal efficacy against VIOTR (different harmful plants [1]; 320 g a.i./ha): 100%; Herbicidal efficacy against ALOMY (different harmful plants [2]; 80 g a.i./ha): 60%; Herbicidal efficacy against VIOTR (different harmful plants [2]; 80 g a.i./ha): 100%

Question: `CCON=C(C)c1c(Cl)ccc(C(=O)Nc2ncnn2C)c1Cl` (single isomer, unassigned) [4-5] was tested. Which “Herbicidal efficacy against ECHCG” value (different harmful plants [1]; 320 g a.i./ha) did it give?
Answer: 90%

Question: And the “Herbicidal efficacy against STEME” value (different harmful plants [1]; 320 g a.i./ha)?
Answer: 80%

Question: What about the “Herbicidal efficacy against VIOTR” value (different harmful plants [1]; 320 g a.i./ha) of the same molecule?
Answer: 100%

Question: What about the “Herbicidal efficacy against ALOMY” value (different harmful plants [2]; 80 g a.i./ha) of the same molecule?
Answer: 30%

Question: What about the “Herbicidal efficacy against VIOTR” value (different harmful plants [2]; 80 g a.i./ha) of the same molecule?
Answer: 90%

Question: With `CCCn1nnnc1NC(=O)c1ccc(S(C)(=O)=O)c(C(C)=NOC)c1Cl` (single isomer, unassigned) [3-15] as the molecule, how does the “Herbicidal efficacy against MATIN” value (different harmful plants [2]; 20 g a.i./ha) read?
Answer: 90%

Question: What about the “Herbicidal efficacy against VIOTR” value (different harmful plants [2]; 20 g a.i./ha) of the same molecule?
Answer: 90%

Question: For `CCCn1nnnc1NC(=O)c1ccc(S(C)(=O)=O)c(C(C)=NOCC)c1Cl` (single isomer, unassigned) [3-19], which “Herbicidal efficacy against CYPES” value (different harmful plants [1]; 80 g a.i./ha) is on record?
Answer: 80%

Question: And the “Herbicidal efficacy against ECHCG” value (different harmful plants [1]; 80 g a.i./ha)?
Answer: 90%

Question: And the “Herbicidal efficacy against VIOTR” value (different harmful plants [1]; 80 g a.i./ha)?
Answer: 100%

Question: And the “Herbicidal efficacy against ALOMY” value (different harmful plants [2]; 80 g a.i./ha)?
Answer: 50%

Question: What about the “Herbicidal efficacy against VIOTR” value (different harmful plants [2]; 80 g a.i./ha) of the same molecule?
Answer: 100%

Question: With `CON=C(C)c1c(Cl)ccc(C(=O)Nc2nonc2C)c1Cl` (single isomer, unassigned) [6-1] as the molecule, how does the “Herbicidal efficacy against ECHCG” value (different harmful plants [1]; 320 g a.i./ha) read?
Answer: 60%

Question: And the “Herbicidal efficacy against POLCO” value (different harmful plants [1]; 320 g a.i./ha)?
Answer: 40%

Question: And the “Herbicidal efficacy against STEME” value (different harmful plants [1]; 320 g a.i./ha)?
Answer: 60%

Question: Which results are given for `CC(=NOCC1CC1)c1c(Cl)ccc(C(=O)Nc2nnnn2C)c1Cl` (single isomer, unassigned) [1-8]?
Answer: Herbicidal efficacy against AVEFA (different harmful plants [1]; 320 g a.i./ha): 90%; Herbicidal efficacy against STEME (different harmful plants [1]; 320 g a.i./ha): 100%; Herbicidal efficacy against VIOTR (different harmful plants [1]; 320 g a.i./ha): 100%; Herbicidal efficacy against ALOMY (different harmful plants [2]; 80 g a.i./ha): 70%; Herbicidal efficacy against MATIN (different harmful plants [2]; 80 g a.i./ha): 100%

Question: How did the “Herbicidal efficacy against AVEFA” value (different harmful plants [1]; 320 g a.i./ha) turn out when `CCON=C(C)c1c(S(C)(=O)=O)ccc(C(=O)Nc2nonc2C)c1Cl` (single isomer, unassigned) [13-6] was run?
Answer: 60%

Question: What about the “Herbicidal efficacy against CYPES” value (different harmful plants [1]; 320 g a.i./ha) of the same molecule?
Answer: 60%

Question: And the “Herbicidal efficacy against VIOTR” value (different harmful plants [1]; 320 g a.i./ha)?
Answer: 100%

Question: And the “Herbicidal efficacy against MATIN” value (different harmful plants [2]; 80 g a.i./ha)?
Answer: 60%

Question: And the “Herbicidal efficacy against VIOTR” value (different harmful plants [2]; 80 g a.i./ha)?
Answer: 100%

Question: Which results are given for `CCCn1nnnc1NC(=O)c1ccc(S(C)(=O)=O)c(C(C)=NOCC)c1Cl` (single isomer, unassigned) [10-6]?
Answer: Herbicidal efficacy against AVEFA (different harmful plants [1]; 320 g a.i./ha): 40%; Herbicidal efficacy against POLCO (different harmful plants [1]; 320 g a.i./ha): 60%; Herbicidal efficacy against VIOTR (different harmful plants [1]; 320 g a.i./ha): 100%; Herbicidal efficacy against MATIN (different harmful plants [2]; 20 g a.i./ha): 90%; Herbicidal efficacy against VIOTR (different harmful plants [2]; 20 g a.i./ha): 100%

Question: Which results are given for `CCON=C(C)c1c(S(C)(=O)=O)ccc(C(=O)Nc2nonc2C)c1Cl` (single isomer, unassigned) [6-19]?
Answer: Herbicidal efficacy against AVEFA (different harmful plants [1]; 320 g a.i./ha): 30%; Herbicidal efficacy against CYPES (different harmful plants [1]; 320 g a.i./ha): 80%; Herbicidal efficacy against VIOTR (different harmful plants [1]; 320 g a.i./ha): 100%; Herbicidal efficacy against MATIN (different harmful plants [2]; 80 g a.i./ha): 70%; Herbicidal efficacy against VIOTR (different harmful plants [2]; 80 g a.i./ha): 100%

Question: With `CCCn1nnnc1NC(=O)c1ccc(Cl)c(C(C)=NOC)c1Cl` (single isomer, unassigned) [3-1] as the molecule, how does the “Herbicidal efficacy against AVEFA” value (different harmful plants [1]; 320 g a.i./ha) read?
Answer: 80%

Question: And the “Herbicidal efficacy against CYPES” value (different harmful plants [1]; 320 g a.i./ha)?
Answer: 100%

Question: What about the “Herbicidal efficacy against VIOTR” value (different harmful plants [1]; 320 g a.i./ha) of the same molecule?
Answer: 100%

Question: And the “Herbicidal efficacy against MATIN” value (different harmful plants [2]; 20 g a.i./ha)?
Answer: 80%

Question: What about the “Herbicidal efficacy against VIOTR” value (different harmful plants [2]; 20 g a.i./ha) of the same molecule?
Answer: 100%

Question: Which results are given for `CON=C(C)c1c(S(C)(=O)=O)ccc(C(=O)Nc2nonc2C)c1Cl` (single isomer, unassigned) [6-15]?
Answer: Herbicidal efficacy against MATIN (different harmful plants [2]; 80 g a.i./ha): 80%; Herbicidal efficacy against VIOTR (different harmful plants [2]; 80 g a.i./ha): 100%

Question: How did the “Herbicidal efficacy against ALOMY” value (different harmful plants [2]; 20 g a.i./ha) turn out when `CCON=C(C)c1c(S(C)(=O)=O)ccc(C(=O)Nc2ncnn2C)c1Cl` (single isomer, unassigned) [4-19] was run?
Answer: 80%

Question: And the “Herbicidal efficacy against VIOTR” value (different harmful plants [2]; 20 g a.i./ha)?
Answer: 100%

Question: Which “Herbicidal efficacy against ALOMY” value (different harmful plants [2]; 80 g a.i./ha) does the source give for `CCCn1nnnc1NC(=O)c1ccc(S(C)(=O)=O)c(C(C)=NOC)c1Cl` (single isomer, unassigned) [10-5] here?
Answer: 60%

Question: And the “Herbicidal efficacy against MATIN” value (different harmful plants [2]; 80 g a.i./ha)?
Answer: 100%

Question: How did the “Herbicidal efficacy against MATIN” value (different harmful plants [2]; 80 g a.i./ha) turn out when `CCCn1nnnc1NC(=O)c1ccc(Cl)c(C(C)=NOCC2CC2)c1Cl` (single isomer, unassigned) [3-8] was run?
Answer: 70%

Question: What about the “Herbicidal efficacy against VIOTR” value (different harmful plants [2]; 80 g a.i./ha) of the same molecule?
Answer: 80%

Question: Which “Herbicidal efficacy against MATIN” value (different harmful plants [2]; 80 g a.i./ha) does the source give for `CON=C(C)c1c(S(C)(=O)=O)ccc(C(=O)Nc2nonc2C)c1Cl` (single isomer, unassigned) [13-5] here?
Answer: 60%

Question: And the “Herbicidal efficacy against VIOTR” value (different harmful plants [2]; 80 g a.i./ha)?
Answer: 90%
